Assay results as given in patent US20020019991A1, “COMPOSITIONS CONTAINING AN ALPHA 1,2-FUCOSE LINKAGE AND USES THEREOF” (ABBOTT LABORATORIES, priority 1998, published 2002).

Experiments:
[1] = test system: Vibrio cholerae 01 Ogawa strain 2995; type: binding
[2] = test system: Enterohemorrhagic Escherichia coli (EHEC) 0157:H7 strain 933; type: binding
[3] = test system: Enteropathogenic E. coli (EPEC); type: binding, Escherichia coli
V. cholerae = assay: Competitive assay: inhibition of V. cholerae attachment to transfected CHO (α1-2 FT) cells, colony counting; type: cell-based, Vibrio cholerae
Procedure: (§1) To determine whether 2′Fucosyllactose is an important chemical structure of the cell receptor for V. cholerae and enterohemorrhagic E. coli (EHEC), a competitive assay was set up. A volume of 400 ul of a suspension of transfected CHO (α1-2 FT) cells at a concentration of 4×10^5 cells/mL was placed in each well of an 8-well microchamber slide (Lab-Tek, Nunc, Inc. Naperville, Ill.). Cells were incubated overnight at 37° C. in a 5% CO2 atmosphere. A bacterial suspension of 1.5×10^8 of V. cholerae was added with either 0.5, 1, or 2 mg/mL of 2′fucosyllactose and incubated at 37° C. Wells were washed 6 times with PBS. Cells were detached with […] of triton x 100 and serial dilutions in TBS or McConkey agar plates were done for colony counting.

[4] = test system: enterohemorrhagic E. coli (EHEC); assay: Competitive assay: inhibition of EHEC attachment to transfected CHO (α1-2 FT) cells, colony counting; type: cell-based, Escherichia coli
Procedure: as §1

## Lewis^x
[1]
  binding of V. cholerae to immobilized blood group antigen neoglycoprotein: stronger binding
[2]
  binding of EHEC to immobilized blood group antigen neoglycoprotein: stronger binding
[3]
  binding of EPEC to immobilized blood group antigen neoglycoprotein: stronger binding

## C[C@@H]1O[C@@H](O[C@H]2[C@H](O[C@H]3[C@H](O)[C@@H](O)C(O)O[C@@H]3CO)O[C@H](CO)[C@H](O)[C@@H]2O)[C@@H](O)[C@H](O)[C@@H]1O (some centres unmarked) [2′fucosyllactose, 2′-fucosyllactose (Fucα1-2Galβ1-4Glc)]
V. cholerae; 0.5, 1, or 2 mg/mL
  dose dependence of inhibition of bacterial cell attachment: dose-dependent inhibition
V. cholerae; transfected CHO (α1-2 FT) cells, concentration as low as 0.5 mg/ml
  inhibition of bacterial cell attachment: significant inhibition
[4]; EHEC versus V. cholerae, transfected CHO cells
  inhibition of binding, EHEC compared with V. cholerae: greater inhibition
[4]; EHEC, 0.5, 1, or 2 mg/mL
  dose dependence of inhibition of bacterial cell attachment: dose-dependent inhibition
[4]; EHEC, transfected CHO (α1-2 FT) cells, concentration as low as 0.5 mg/ml
  inhibition of bacterial cell attachment: significant inhibition
